We go through one compound from patent US9732050B2, “Modulators of sperm hypermotility and uses thereof” (HYDRA BIOSCIENCES, INC., priority 2005, dated 2017).

In this experiment the target is T1, Mouse CatSper1 currents (Mus musculus, UniProt Q91ZR5).
T1 construct: Spermatozoa from corpus epididymis were used because the CD of such cells was less fragile; from tissue; host or cells: mouse spermatozoa from corpus epididymis
Put plainly: Inhibition of mouse CatSper1 currents in electrophysiological recordings. In kind it is cell-based. The method, then: Compound (II) was tested for its effects on sperm hyperactivation using a single-sperm motility assay as described in Kirichok Y, Navarro B, Clapham D E. “Whole-cell patch-clamp measurements of spermatozoa reveal an alkaline-activated Ca2+ channel”. Nature. 2006; 439(7077):737-40. Mouse sperm was prepared as described in Kirichok.
The patch pipette was applied to the sperm cell cytoplasmic droplet (CD). Spermatozoa from corpus epididymis were used because the CD of such cells was less fragile. The most mature spermatozoa, those with the CD located next to the principal piece, were chosen for experiments. Pipette resistance with Cs-Methanesulfonate-based solutions was 6-13 MΩ. Access resistance in the whole-cell configuration was 25-120 MS). The pipette solution (in mM) was as follows: 140 Cs-Methanesulfonate, 5 NaCl, 10 HEPES, 10 EGTA, pH 7.2 (pH adjusted with CsOH).
Seals between the patch pipette and the cytoplasmic droplet were formed in HS bath solution (Kirichok Y, Navarro B, Clapham D E. Whole-cell patch-clamp measurements of spermatozoa reveal an alkaline-activated Ca2+ channel. Nature. 2006 Feb. 9; 439(7077):737-40). After break-in, the bath solution was changed to recording solution: 150 NaGluconate, 10 HEPES, 2Na3HEDTA and 2 EGTA, pH 7.4 (pH adjusted with NaOH). CaCl2 was added to the solution in accordance with the WinMAXC v2.05 program (C. Patton, Stanford University) to yield ˜[…] free [Ca2+].
A 20 micromolar solution of compound (II), i.e. 3,4-bis(2-thienylcarbonyl)-1,2,5-oxadiazole-2-ium-2-olate, was prepared from a 100 mM DMSO stock in the recording solution described above. Osmolarity of the solutions was approximately 303 mmol kg-1.
The membrane potential was held at 0 mV. Every 5 seconds CatSper currents were monitored by application of a voltage ramp from −100 mV to +100 mV over the course of 400 milliseconds. Following break-in, cells were monitored until a steady state level of CatSper current (plotted at +80 mV) was observed. […] Steady state block was monitored for 5-6 sweeps. […] Series resistance was monitored throughout the recordings.

In the case of `O=C(c1cccs1)c1no[n+]([O-])c1C(=O)c1cccs1` [Compound (II), 3,4-bis(2-thienylcarbonyl)-1,2,5-oxadiazole-2-ium-2-olate], the “block of CatSper current” value (20 micromolar, current plotted at +80 mV, mouse spermatozoa from corpus epididymis) is recorded as “steady state block was achieved”. For the same compound, under “20 micromolar, voltage ramp every 5 seconds”, the “sweeps until steady state block” value was 2-3 sweeps. Also, the “CatSper current following removal of the compound” value (washout after 20 micromolar) was “returned rapidly to unblocked levels”.
